Assay results: patent US11813262B2, “Compositions and methods to increase muscular strength” (priority 2017, dated 2023)

Experiments:
[1] = test system: 3D engineered skeletal muscle tissue from C2Cl2 myoblasts; assay: Contractility of 3D engineered optogenetic skeletal muscle tissue (displacement of compliant cantilever); type: cell-based, mouse; conditions: for effect on muscle contraction of 3D muscle: other actin disrupters
From the text: An in vitro optogenetic skeletal muscle micro-tissue as a model system (e.g., engineered skeletal muscle) such as the one shown in FIG. 1A-1E was used. Briefly, a sacrificial molding technique was used to form the muscle tissue on the cantilevers. A steel rod was used to mold a cylindrical hole in solidified gelatin. The steel rod was then removed and myoblasts in an extracellular matrix material was inserted in its place. The myoblasts were then differentiated in place to form a differentiated muscle tissue. With this system, a range of actin inhibitors were tested (e.g., Cytochalasin D (Zygosporin A), Latrunculin A, SMIFH2, CK666 and Jasplakinode) including ones that bind to the barbed end of F-actin, ones that sequester G-actin monomers and inhibitors of formins, roughly a 100% increase in muscle strength was observed (FIGS. 2A-2B and FIGS. 3A-3B) and a 300% increase in external work performed was observed, within 2 hours of F-actin disruption. Additionally, disruption of the dynamic F-actin cytoskeleton using small molecule actin dynamics inhibitors led to a persistent 2-fold improvement in force (e.g., muscle performance or work) compared to exercising (FIG. 4A-4E). Actin disruption improved mouse muscle explant force, a model system that is very close to human muscle (FIG. 5A-5C).
(§1) Fabrication of a 3D engineered skeletal muscle tissue by differentiating C2Cl2 myoblasts mixed in a fibrin/matrigel extracellular matrix cast in to a muscle-like cylindrical shape using a sacrificial molding technique. The muscle tissue is anchored to a stiff cantilever and a more compliant cantilever. Optogenetic stimulation of the muscle tissue lead to muscle contraction which was quantified through measurable displacements of the compliant cantilever. ZygoA treatment of the 3D muscle tissues lead to a significant improvement in contraction relative to DMSO treated controls, reaching ˜2-fold increase in 2 hours.

[2] = test system: mouse hindlimb extensor digitorum longus (EDL) muscle explant; assay: Contractility of mouse hindlimb EDL muscle explant on cantilevers under electrical stimulation
From the text: The hindlimb extensor digitorum longus (EDL) muscle of a euthanized 2-3 month old male mouse was dissected. The EDL muscle was anchored between two kapton cantilevers using a cyanoacrylate glue. One of the cantilevers was movable whose position could be adjusted to change the resting tension of the muscle. The cantilever was moved to the point where maximal force was produced and was held at this point for the rest of the experiment. (FIG. 7A-7B).
The two colored envelopes around the curves representing the mean are the 68% and 95% confidence interval envelopes (FIG. 7D). ZygoA treated tissues that responded the best, with an average of ˜2× transient increase in contraction after treatment, followed by decline (FIG. 7E). […] Modeling the decline associated with rigor mortis as an exponential decay estimated the “true” strength change after treatment. The muscle strength was compared of tissue after treatment extrapolated to time t=0 and represent this as a strength ratio relative to the actual strength at t=0. ZygoA treated tissues show a ˜2.5-fold increase in median strength ratio relative to DMSO treated controls.

F-actin [3] = assay: Phalloidin stain of F-actin in mouse EDL muscle explants; conditions: 3 uM, 2 hours of treatment, vs DMSO
[4] = test system: differentiated C2Cl2 myotubes; assay: Active contraction of differentiated optogenetic C2Cl2 myotubes (Index of Movement); type: cell-based, mouse
From the text: as §1

F-actin [5] = assay: Live confocal time-lapse microscopy of Sir-Actin stained myotubes; type: cell-based; conditions: 0.3 uM
Protocol: However, some of the background non-sarcomeric F-actin was depolymerized as also quantified in (FIG. 10D). Myotubes with an immature sarcomeric structure were depolymerized ˜5 hours after ZygoA treatment (FIG. 10C). Poorly differentiated, myotubes without visible sarcomeric structures had rupturing F-actin cables and significant actin upon actin disruption with ZygoA. […] Sir-Actin intensity before and 12 hours after treatment along sarcomeric F-actin in mature myotubes (FIG. 10D-10E).

F-actin [6] = assay: Fluorescence recovery after photobleaching of GFP-tagged G-actin in C2Cl2 myotubes; type: cell-based, mouse
From the text: The fluorescence recovery in differentiated myotubes was affected by 3 different events: diffusion, dynamic F-actin turnover and stable F-actin turnover. DMSO treated tissues recovered faster than ZygoA treated tissues. […] These myotubes were excluded from the computation. Fluorescence recovery at different timescales (seconds, minutes, tens of minutes) reflected different molecular processes (diffusion of monomer, dynamic F-actin turnover, stable F-actin turnover). […] Changes in dynamic and stable F-actin fractions were statistically significant (FIG. 11D-11E).

[7] = poorly differentiated myotubes without visible sarcomeric structures

C/C1=C/C(=O)O[C@@H]2C[C@@H](CC[C@H](C)/C=C\C=C\CC1)O[C@@](O)([C@@H]1CSC(=O)N1)C2 [Latrunculin A]
effect on muscle contraction of 3D muscle [1]: improved muscle contraction

O=C1NC(=S)N(c2cccc(Br)c2)C(=O)C1=Cc1ccco1 [SMIFH2, 1-(3-Bromophenyl)-5-(2-furylmethylene)-2-thioxo-hexahydropyrimidine-4,6-dione]
effect on muscle contraction of 3D muscle [1]: improved muscle contraction

C=C1[C@@H](C)[C@H]2[C@H](Cc3ccccc3)NC(=O)[C@]23[C@H](OC(C)=O)/C=C/[C@@](C)(O)C(=O)[C@@H](C)C/C=C/[C@H]3[C@@H]1O [ZygoA, Zygosporin A]
transient increase in contraction after treatment ([2]; ZygoA treated tissues that responded the best, average, treatment at t=60 mins): ~2 × | increase in median strength ratio relative to DMSO treated controls ([2]; strength after treatment extrapolated to t=0 (exponential decay model of rigor mortis) relative to actual strength at t=0): ~2.5 fold | contractility changes of treated tissues vs DMSO ([2]; treatment at t=60 mins, before rigor mortis decline): transient improvement | F-actin disruption in muscle explants (phalloidin stain) (F-actin [3]): disrupted F-actin | longer term effect on active contraction ([1]; 0.3 μM, long term (1 day)): no significant effect | muscle contraction after pulsed treatment compared to DMSO treated controls ([1]; 3 uM for 2 hours followed by washout, days after washout): sustained improvement in muscle contraction | short term increase in force (active contraction) ([1]; 3 μM, 2 hours of exposure): 2.6 × | decrease in contraction compared to the peak achieved 2 hours after exposure ([1]; 3 μM, longer term (1 day)): ~50% | increase in contraction relative to DMSO treated controls ([1]; 3D muscle tissues, in 2 hours): ~2 fold | effect of washout on contraction ([1]; washout of high dose 3 uM): recovery of the force to the level of the peak | effect of washout on contraction ([1]; washout of low dose 0.3 uM): slight decrease in contraction (not significant) | active contraction (Index of Movement, active contractile displacement) [4]: significant improvement in active contraction | time to depolymerization of myotubes with immature sarcomeric structure (F-actin [5]): ~5 h | sarcomeric F-actin structure in mature myotubes after treatment (F-actin [5]; 12 hours after treatment, mature sarcomeric structure): still displayed the periodic sarcomeric structure | average F-actin filament length (F-actin [5]; [7]): decrease in the average F-actin filament length | number of F-actin filaments (F-actin [5]; [7]): increase in number of F-actin filaments | actin turnover time (F-actin [6]; FRAP, vs DMSO): slowed the actin turnover time in a dose-dependent manner | amount of stable F-actin (F-actin [6]; higher dose 3 uM): reduces the amount of stable F-actin | amount of dynamic F-actin (F-actin [6]; low dose 0.3 uM): reduced the amount of dynamic F-actin

C/C1=C\[C@H](C)C[C@H](C)OC(=O)C[C@H](c2ccc(O)cc2)NC(=O)[C@@H](Cc2c(Br)[nH]c3ccccc23)N(C)C(=O)[C@H](C)NC(=O)[C@@H](C)C1 [jasplakinolide]
active contractility after F-actin stabilization [1]: gradual decrease in active contractility
